Several values for one entry are separate records, joined by “and”; a condition that tells them apart may be missing. Equal entries are not always repeated.
Legend:
[1] = tested on: New Zealand white rabbits; settings: rabbit, 1.5 T
Protocol: A General Electric Signa Magnetic Resonance Imaging System, operating at 1.5 T, and using a knee surface coil was used. New Zealand white rabbits (ca. 2.5 kg wt.) were used for imaging. […] With these instrument settings, an image could be acquired in about 1.3 min. Images of the rabbit kidney and liver were taken before injection and at 1, 3, 6, 8, 12, 16, 21, 26, 36, 46, and 56 min intervals after injection.
Schematic drawings of the images before injection and at intervals of 10 and 60 minutes are show in Fig. 1, 2 and 3, respectively.

[2] = Paramagnetic relaxation properties in water at 10 MHz (0.15T), RADX spin analyzer; type: physicochemical; settings: 10 MHz (0.15T)
Procedure, shortened: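 Mn(II) complexes in water were measured after thermal equilibrium at 37°C. T₁ (spin-lattice) and T₂ (spin-spin) relaxation values were recorded, in triplicate where stated.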

[3] = Paramagnetic relaxation properties in human plasma at 37°C; type: physicochemical
New Zealand white rabbit = tested on: New Zealand white rabbit
Protocol: This solution was infused into a New Zealand white rabbit (3.1 kg wt.) at 0.065 mmole/kg/min for 5 min to achieve a total dose of […]. […] 15 Min after the infusion, the rabbit was sacrificed by lethal pentobarbitol injection, and the heart and liver were removed. Samples of these organs were tested for relaxation time at 0.15 T with a RADX spectrometer (Houston, TX).
At a lower dose level (0.10 mmole/kg), the effects of a rapid bolus injection (10 sec) or a slow infusion (over 5 min) were tested in two New Zealand white rabbits. 15 Min after the end of the infusion or injection, the animals were sacrificed and T₁ and T₂ values were measured on 4-16 individual samples of kidney, liver and heart tissue.

Rats = settings: IV, standard conditions, 10 animals per dosage group
Description: The doses were 0.3, 0.5, and 0.8 mmole/kg. 10 Animals were used in each dosage group.

[4] = Plasma clearance: plasma T₁ and T₂ times after injection; type: in vivo; settings: rabbit, 0.1 mmole/kg; for plasma T₁ / plasma T₂: 0.15 T
Protocol: A dose of 0.1 mmole/kg of GdDTPA was injected into a rabbit and blood samples were drawn at 10 min intervals for 50 min. The blood was centrifuged, and the plasma T₁ and T₂ times were measured at 0.15 T with a RADX PROTON SPIN ANALYZER (Houston, TX).

[5] = Stability of aqueous solutions after addition of a NaOH solution; settings: ratio of OH⁻ to compound of 0.2; 161 mM (glycine) or 167 mM (gluconate) aqueous solution
Protocol: NMR contrast agents must be stable in solution under adverse conditions to be effective as pharmaceutical agents.
One ml of a 161 mM solution (initial pH 5) was placed in a test tube at 19°C. Sodium hydroxide (0.032 ml; 1 N) was added to the solution, giving a ratio of OH⁻ to compound of 0.2.
[Manganese(II)·(H₂O)₂·(gluconate)₂]⁺²(Cl₂)⁻² was prepared according to the procedure of Example 24. Deionized water was added to form a 167 mM clear solution. One mole equivalent of sodium hydroxide solution was added to five mole equivalents of the [manganese(II)·(H₂O)₂·(gluconate)₂]⁺²(Cl₂)⁻² solution, giving a ratio of OH⁻ to compound of 0.20.

[6] = 0.99 mM solution in water, 37°C, triplicate, mean +/- SD
[7] = 37°C, repeat measurement 80 minutes later
[8] = 0.10 mmole/kg, bolus (10 sec), 15 min after, mean of samples
[9] = 0.10 mmole/kg, slow infusion (over 5 min), 15 min after, mean of samples
[10] = infusion 0.065 mmole/kg/min for 5 min, total dose 0.31 mole/kg, 15 min after infusion, 0.15 T

For `NCC(=O)O.NCC(=O)O.O.O.[Cl-].[Cl-].[Mn+2]` [[Manganese(II)·(H₂O)₂·(glycine)₂]⁺²(Cl₂)⁻²], the “liver parenchyma image intensity” value ([1]; image after one hour (60 min)) was “returned to normal intensity”, the “enhancement of the liver and parenchyma in the image” value ([1]; one min after injection, doses of 10 and 20 µmole/kg, Spin Echo TR = 300 msec, TE = 20 msec) was “over 100%” and the “spin-lattice (T₁) relaxation value” [2, 6] was 109 ± 5 ms. For the same compound, the “spin-spin (T₂) relaxation value” [2, 6] was 26 ± 1 ms, the “millimolar relaxivity for T₁” value ([2]; in water, calculated from T₁ and concentration) was 9.27 mM⁻¹ s⁻¹ and the “millimolar relaxivity for T₂” value ([2]; in water, calculated from T₂ and concentration) was 38.9 mM⁻¹ s⁻¹. It also gave a T₂ value ([3]; 94 µM final concentration, 37°C) of 184 ± 12 ms, a T₁ value ([3]; 94 µM final concentration, 37°C, triplicate) of 227 ± 3 ms and a R₁ ([3]; 37°C) of 46.9 mM⁻¹ s⁻¹. For the same compound, the R₂ ([3]; 37°C) was 57.8 mM⁻¹ s⁻¹, the “T₁ changed by (repeat measurement)” value [3, 7] was 2% and the “T₂ changed by (repeat measurement)” value [3, 7] was 2%. The “T₂ relaxivity in plasma, fold greater than GdDTPA” value ([3]; versus GdDTPA) was 12.0 fold, the “T₁ relaxivity in plasma, fold greater than GdDTPA” value ([3]; versus gadolinium diethylenetriaminepentaacetic acid chelate (GdDTPA)) was 9.8 fold and the “Heart T₁, Bolus Injection, Mean” value (New Zealand white rabbit; [8]) was 156 ms. The “Heart T₂, Bolus Injection, Mean” value (New Zealand white rabbit; [8]) was 40 ms, the “Kidney T₁, Bolus Injection, Mean” value (New Zealand white rabbit; [8]) was 109 ms and the “Kidney T₂, Bolus Injection, Mean” value (New Zealand white rabbit; [8]) was 40 ms. For the same compound, the “Liver T₁, Bolus Injection, Mean” value (New Zealand white rabbit; [8]) was 51 ms, the “Liver T₂, Bolus Injection, Mean” value (New Zealand white rabbit; [8]) was 18 ms and the “Liver T₂, Infusion” value (New Zealand white rabbit; 0.10 mmole/kg, slow infusion (over 5 min), 15 min after, individual tissue samples) was 15 msec (2×) and 11 msec and 20 msec. The “Heart T₁, Infusion, Mean” value (New Zealand white rabbit; [9]) was 179 ms, the “Heart T₂, Infusion, Mean” value (New Zealand white rabbit; [9]) was 41 ms and the “Kidney T₁, Infusion, Mean” value (New Zealand white rabbit; [9]) was 120 ms. For the same compound, the “Kidney T₂, Infusion, Mean” value (New Zealand white rabbit; [9]) was 45 ms, the “Liver T₁, Infusion, Mean” value (New Zealand white rabbit; [9]) was 39 ms and the “Liver T₂, Infusion, Mean” value (New Zealand white rabbit; [9]) was 15 ms. For the same compound, the “tolerance of the infusion” value (New Zealand white rabbit; infusion 0.065 mmole/kg/min for 5 min, total dose 0.31 mole/kg) was “tolerated the infusion without outward signs of a pharmacologic or toxicologic effect”, the “heart T₁” value (New Zealand white rabbit; [10]) was 45 ms and the “heart T₂” value (New Zealand white rabbit; [10]) was 21 ms. For the same compound, the “liver T₁” value (New Zealand white rabbit; [10]) was 19 ms, the “liver T₂” value (New Zealand white rabbit; [10]) was 10 ms and the LD₅₀ (Rats) was 0.70 mmol/kg. The “time for which the plasma T₁ was maintained below 250” value [4] was 40 min, the “plasma T₁” value ([4]; 0 min (baseline)) was 1600 ms and the “plasma T₂” value ([4]; 0 min (baseline)) was 447 ms. For the same compound, the “plasma T₁” value ([4]; 10 min) was 58 ms, the “plasma T₂” value ([4]; 10 min) was 42 ms and the “plasma T₁” value ([4]; 20 min) was 102 ms. For the same compound, the “plasma T₂” value ([4]; 20 min) was 65 ms, the “plasma T₁” value ([4]; 30 min) was 156 ms and the “plasma T₂” value ([4]; 30 min) was 110 ms. The “plasma T₁” value ([4]; 40 min) was 224 ms, the “plasma T₂” value ([4]; 40 min) was 156 ms and the “plasma T₁” value ([4]; 50 min) was 259 ms. The “plasma T₂” value ([4]; 50 min) was 180 ms, the “plasma T₁” value ([4]; 60 min) was 323 ms and the “plasma T₂” value ([4]; 60 min) was 205 ms. The “plasma T₁” value ([4]; 70 min) was 453 ms, the “plasma T₂” value ([4]; 70 min) was 257 ms and the “plasma T₁” value ([4]; 80 min) was 550 ms. The “plasma T₂” value ([4]; 80 min) was 293 ms, the “plasma T₁” value ([4]; 90 min) was 625 ms and the “plasma T₂” value ([4]; 90 min) was 295 ms. The “stability after addition of a NaOH solution” value [5] was “the solution remained clear with no discoloration or formation of a precipitate”.

Reference: EP0308983A2, “NMR imaging with Mn(II) coordination compositions” (priority 1987, dated 1989)
